In patent US20260335251A1, “RED BLOOD CELL-HITCHHIKING IONIC LIQUID COATED NANOPARTICLES FOR CROSSING THE BLOOD BRAIN BARRIER” (University of Mississippi, priority 2022, published 2026):
Entries after “also recorded” stand apart in the source; their conditions may differ.

How the values were obtained:
red blood cells = experiment: Red blood cell hitchhiking of nanoparticles coated with the ionic liquid; type: cell-based; settings: nanoparticles coated with this ionic liquid
[1] = Abacavir detection in brain regions (1H-NMR); type: in vivo, Sprague-Dawley rat; settings: 6 h; IL-PLGA NPs with 60 μg/mL ABC, intra-carotid; n=3/group
Method: Abacavir Detection in the Brain: In parallel with DiD-NP injections, Sprague-Dawley rats injected with IL-PLGA NPs (either without cargo or with 60 μg/mL ABC, n=3) were sacrificed at 6 hours post-injection, and whole organs were processed, and frozen post-mortem as described above in Biodistribution. In order to assess to areas of biodistribution of abacavir within the brain, the following regions were sliced and homogenized in a 1:1 mixture of 1×PBS (pH 7.4) and Acetonitrile constituting a total homogenate volume of 500 μL per sample: striatum, midbrain, interbrain, cerebellum, hypothalamus, cerebral cortex, & hippocampus. […] A range of 500-600 μL of liquid filtrate was recovered across all samples, which were all delivered into clean NMR tubes and topped 10% (v/v) with D2O to be evaluated for presence of drug by ^1H NMR at 400 MHz with 90% H2O/10% D2O water suppression.
Once biodistribution was determined with DiD, a new set of healthy, 8-week-old, female, Sprague Dawley rats with in-dwelling carotid catheters received IV infusions (under the same conditions) with either empty, or ABC-encapsulated, IL-coated PLGA NPs (n=3/group). Sites of regional distribution of abacavir cargo were evaluated within the brain (at the same 6-hour endpoint). […]

HIV-1BaL = experiment: HIV-1 replication in human PBMCs (p24 antigen ELISA); type: cell-based, HIV-1 (in human PBMCs); settings: days 3, 7, 10 post-infection; ABC alone or in NPs p<0.0001; empty IL-coated NPs p=0.04
Method: HIV Expression and Cytotoxicity: 3 independent batches of bare and CA2HA 1:2-coated PLGA NPs were prepared with abacavir (ABC) as above but in sterile Milli-Q water and re-suspended to 1 mg/ml with sterile 1×PBS pH 7.4. As ~60 μg/mL of drug was estimated by quantitative NMR, PBMC cells were stimulated with 10 μg/ml of PHA for 4 days. Stimulated PBMC cells were harvested at 400×g, RT for 10 min. The cells at 2×10^6 cells/mL were used for each experimental condition and infected with 1 ng/ml of HIV-1 Bal+ in presence of 3 ng/ml of IL-2 and 2 μg/ml of polybrene. PBMC cells were treated in the absence or presence of nanoparticles at 10 µM final concentration. […] The cell viability was determined by trypan blue at each harvesting day and an aliquot of condition media was saved for further analysis on p24 antigen assay. […] The p24 antigen assay was performed according to manufacture protocol on experimental condition media collected on 3, 7, 10 days post HIV-1 infection for quantification of HIV-1.
To assess the bioactivity of ART when encapsulated inside PLGA & IL-PLGA NPs, HIV-1 replication was assessed in human peripheral blood mononuclear cells (PBMCs) that were mock-infected or were infected with HIV-1BaL (1 ng/ml) for 10 days. […] Concentration of the HIV-1 capsid protein (p24, ng/ml) was assessed on days 3-, 7-, and 10 post-infection by enzyme-linked immunosorbent assay (ELISA) (FIG. 7).

[2] = Quantitative encapsulation of ABC (1H NMR); type: physicochemical; settings: for ABC encapsulated: ~1 mg/mL NPs, from an added 74.1 μg/mL, quantitative 1H NMR
Method: Quantitative encapsulation of ABC (^1H NMR): PLGA and CA2HA 1:2 PLGA NPs were synthesized in deuterium oxide as described previously, and then resuspended to 500 μL (2 mg/mL) to quantitatively measure composition of the IL coating on the surface of the PLGA NPs with 20 μL Tetramethylsilane (TMS) internal quantification standard: ^1H NMR (400 MHz, D2O) δ 6.85 (dt, J=15.8, 7.0 Hz, 27H), 5.85 (dt, J=15.7, 1.5 Hz, 28H), 4.78 (d, J=1.3 Hz, 7140H), 4.09-4.02 (m, 27H), 3.81-3.71 (m, 21H), 3.64 (dd, J=11.8, 4.5 Hz, 45H), 3.60-3.47 (m, 73H), 3.25 (s, 136H), 2.72 (d, J=1.3 Hz, 14964H), 2.19 (qd, J=7.2, 1.6 Hz, 69H), 1.56-1.46 (m, 47H), 0.91 (t, J=7.4 Hz, 96H), 0.00 (s, 12H).
To break open the NPs, bare PLGA NPs and IL-PLGA NPs were first sonicated at 60° C. for 30 minutes to destroy the outer IL coating integrity, evidenced by a phase separation of cloudiness in the IL-PLGA NPs. To next dissociate the IL coating from the polymer core, all particles were vortexed at 25° C. on the highest setting for 10 minutes (in 2-minute intervals). The particles were then stored at −80° C. for 2 minutes to protect the ABC drug while inducing a bulk phase separation, and then vortexed at the highest setting for 2 min at 25° C. Lastly, to extrude the abacavir from the polymer core, all NPs were 30 kDa MWCO centrifuge-filtered for 1 hour at 4500 RPM at 40° C. Filtrate smaller than 30 kDa was collected at the bottom of the tube and stored at −20° C., concentrated (2×) with D2O and evaluated for presence of drug by ^1H NMR at 400 MHz at the highest scan rate (proton64).
As the appearance of drug peaks were very small compared to the IL, 2 μL of TMS was then used in particular to obtain a relative understanding of the size of the small emerging peaks. […] Representation of encapsulated ABC dose was then calculated: • 0.002 mL TMS (0.648 g/mL)=0.0013 g TMS • 0.0013 g TMS/88.22 g/mol TMS=0.0000146 mol TMS • 0.0000146 mol TMS (~0.03 integral ratio, 8.5 ppm & 0 ppm peak) ~4.38×10^−7 mol ABC • 4.38× 10-7 mol ABC (286.3 g/mol ABC) ~ (0.000125 g ABC/2) (ug total ~1 mg/mL) ~62.7 μg/mL ABC encapsulated

[3] = system: microglia, astrocytes, endothelial cells in brain; experiment: Confocal/widefield immunofluorescence of brain sections (cellular localization); type: in vivo, Sprague-Dawley rat; settings: Iba-1, GFAP, von Willebrand factor
Method: Confocal Fluorescence: Perfused and cryopreserved rat brains were sectioned using a microtome (Leica Biosystems, #CM3050S) at 20-micron thickness. The slides were washed twice with 1×PBS and permeabilized (with 0.1% Triton-X, 0.1% BSA in PBS) for 30 min at 25° C. The permeabilized slides were blocked (1% BSA, 1% normal goat serum in PBS) for an additional 30 min at 25° C. and followed by probing with primary rabbit-anti-IBal (1:200 dilution) or […] (1:250 dilution) for 90 min at 25° C. At the end of the incubation, the slides were washed 3x with PBS and followed by incubation with secondary antibodies (Texas Red Goat-anti Rabbit, 1:500 for IBa1 and Alexa 488 goat anti-mouse, 1:500 for GFP), 1 hr at 25° C. To stain cellular nuclei, Hoechst stain was used at 1:10000 dilution. All dilutions represented as (vol/vol). The slides were washed 3× with 1×PBS and mounted with antifade media and kept at 4° C. for further analysis with confocal microscopy. […]
To both qualitatively and quantitatively confirm IL-PLGA NP selectivity for cells comprising the HIV reservoir, brain sections (40 μm) collected from rats used above were co-labeled for protein markers of astrocytes (GFAP; FIG. 3B) and microglia (Iba-1; FIG. 3C) with a Hoechst nuclear counterstain (FIG. 3A). […]

| SMILES | Red blood cell hitchhiking (red blood cells) | other results |
| --- | --- | --- |
| CCC/C=C/C(=O)O [CA2HA 1:1, Choline 2-Hexenoate 1:1] | successfully hitchhike red blood cells |  |
| CCC/C(C)=C/C(=O)O [CA3ME2HA 1:1, Choline Trans-3-Methyl-Trans-2-Hexenoate 1:1] | successfully hitchhike red blood cells |  |
| CC/C=C(\C)C(=O)O [CAGAS 1:2, Choline trans-2-Methyl-2-Pentenoate 1:2] | successfully hitchhike red blood cells |  |
| CC/C=C/CC(=O)O [CA3HA 1:1, Choline 3-Hexenoate 1:1] | successfully hitchhike red blood cells |  |
| Nc1nc(NC2CC2)c2ncn([C@H]3C=C[C@@H](CO)C3)c2n1 [ABC, abacavir] |  | Abacavir regional brain accumulation [1]: accumulate most greatly in the cerebellum, interbrain, striatum, and midbrain regions; also recorded: lesser (but considerable) delivery to the hippocampus, cerebral cortex, and hypothalamus regions; HIV-1 viral replication (p24) vs HIV-infected cells (HIV-1BaL): significantly attenuated viral replication; Encapsulation efficiency (EE) of ABC ([2]; ABC 2%, estimated by quantitative 1H NMR): ~ 84.6%; ABC encapsulated [2]: ~ 62.7 μg/mL; ABC encapsulated ([2]; listed as abacavir (ABC)): ~ 60 μg/mL |
| CCCCCCC(=O)O [CAHPA 1:1, Choline Heptanoate 1:1] | successfully hitchhike red blood cells |  |
| CCC/C=C/C(=O)O [CA2HA 1:2, Choline 2-Hexenoate 1:2] |  | Cellular localization in brain [3]: colocalizes with HIV reservoir cells |
| CC/C(C)=C/C(=O)O [CA3ME2PE 1:1, Choline Trans-3-Methyl-Trans-2-Pentenoate 1:1] | successfully hitchhike red blood cells |  |
